These results are taken from BindingDB's records for doi:10.1007/s10822-022-00478-x (Roche Innovation Center Basel, F. Hoffmann-La Roche Ltd., 2022).

The structures appear in SMILES notation.

The term IC50 denotes the point on the concentration scale where inhibition reaches its midpoint. Low values mean higher potency, high ones lower potency.

This test has as its target cAMP and cAMP-inhibited cGMP 3',5'-cyclic phosphodiesterase 10A (Homo sapiens, UniProt Q9Y233). The test can be described thus: PDE10A assay. The procedure, abridged:
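Human PDE10A (2 ng/well) preincubated 15 min RT with compound in HEPES pH 7.5, 10 mM MgCl2, BSA, then reacted 15 min with 50 nM [3H]cGMP/cGMP substrate. Stopped with Y-Si SPA beads; bound radioactivity counted, IC50 from four-parameter logistic, pIC50 = −log10(IC50).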
In turn, `Cn1ncc(S(C)(=O)=O)c1C(=O)Nc1ccc2cc(-c3ccccc3)nn2c1` [Roche-Dataset for PDE10A, Compound 410] registered a half-maximal inhibitory concentration (IC50) of 179 nM.
As to `Cc1nccc2nc(CCc3nc(N4CCCC4)nn3C)nn12` [Roche-Dataset for PDE10A, Compound 714], the IC50 was found to be 84 nM.
`COc1nc2cc(NC(=O)c3c(C(=O)N4CCC4)cnn3C)ccn2n1` [Roche-Dataset for PDE10A, Compound 745]: the IC50 was 6550 nM.
Compound `Cc1cc(NC(=O)c2c(C(=O)N3CCC3)cnn2C)cc(NC(=O)OC(C)(C)C)n1` [Roche-Dataset for PDE10A, Compound 1068] came in with an IC50 of 207 nM. Against the preceding compound, the IC50 is about 32-fold lower.
In the case of `Cc1c(Br)cn2nc(/C=C/c3nc(N4CCCC4)nn3C)nc2c1C` [Roche-Dataset for PDE10A, Compound 406], the midpoint of inhibition, the IC50, lay at 12 nM.
`CN(C)CCn1nc(-c2ccccn2)cc1NC(=O)c1nc(C2CC2)ccc1Nc1cncnc1` [US8470820, 12] showed an IC50 of 1.05 nM.
Compound `O=C(NCc1cncs1)c1nc(C2CC2)cnc1Nc1cncnc1` [Roche-Dataset for PDE10A, Compound 1028] had an IC50 of 890 nM.
The figure for `Cn1c(Cl)nc(C(=O)N2CCC2)c1C(=O)Nc1ccn2nc(-c3ccccc3)nc2c1` [Roche-Dataset for PDE10A, Compound 115] is 0.45 nM; for `Cn1ncc(C(=O)N2CCC2)c1C(=O)Nc1cc(C2CCCCC2)n(C2CCCC2)n1` [Roche-Dataset for PDE10A, Compound 1101] it is 783 nM.
In turn, `O=C(Nc1ccc2cc(-c3ccccc3)nn2c1)c1onc2ccc(Br)cc12` [Roche-Dataset for PDE10A, Compound 523] displayed a half-inhibitory concentration (IC50) of 10 nM.
As to `COc1cnc(C)n2nc(CCc3nc(N4CCCC4)nn3C)nc12` [Roche-Dataset for PDE10A, Compound 671], 11 nM corresponded to half-maximal inhibition (IC50). This IC50 and that of the compound before are within 1.5-fold of each other.
The figure for `CNC(=O)c1cc(F)c(F)cc1NC(=O)c1nc(C2CC2)cnc1Nc1cncnc1` [US8703768, 288] is 0.74 nM; for `Cc1ncc(C)n2nc(/C=C/c3nc(N4CC[C@@H](NC(=O)OC(C)(C)C)C4)nn3C)nc12` [Roche-Dataset for PDE10A, Compound 1132] it is 752 nM; for `Cn1ncc(C(=O)N2C[C@@H]3C[C@H]2CO3)c1C(=O)Nc1ccn2nc(N3CCOCC3)nc2c1` [Roche-Dataset for PDE10A, Compound 193] it is 128 nM.
Take `O=C(Nc1ccn2nc(-c3ccccc3)nc2c1)c1ccc(Cl)cn1` [Roche-Dataset for PDE10A, Compound 778]: the half-inhibitory concentration (IC50) came to 10000 nM.
As for `Cn1cc(-c2ccccc2)nc1COc1ncc(C2CC2)nc1C(=O)NCC1CC1` [Roche-Dataset for PDE10A, Compound 191], the IC50 turned out to be 221 nM.
`Cn1ncc(C(=O)N2CCC2)c1C(=O)Nc1cc2nc(-c3ccccc3)nn2cn1` [Roche-Dataset for PDE10A, Compound 236] registered an IC50 of 2.61 nM.
Compound `O=C(NCCc1cnc(-c2ccccc2)[nH]1)c1nc(C2CC2)ccc1Nc1cncnc1` [Roche-Dataset for PDE10A, Compound 102] displayed an IC50 of 2.11 nM.
Compound `O=C(c1nc(C2CC2)cnc1Nc1cncnc1)N1CCN(Cc2ccccc2)CC1` [Roche-Dataset for PDE10A, Compound 1008] displayed an IC50 of 371 nM. Against the preceding compound, the IC50 is about 180-fold higher.
Consider `O=C(Nc1ccnc(Cl)n1)c1cn(-c2ccc3ccccc3n2)cn1` [Roche-Dataset for PDE10A, Compound 627], for which the IC50 was 1230 nM. This IC50 is about 3.3-fold higher than that of the compound before.
In turn, `CNC(=O)c1c(NC(=O)c2nc(C)c(C)nc2Nc2cncnc2)cnn1C` [Roche-Dataset for PDE10A, Compound 1099] came in with an IC50 of 7810 nM.
To `O=C(NC1CCN(c2ccccn2)CC1)c1nc(C2CC2)ccc1Nc1cncnc1` [Roche-Dataset for PDE10A, Compound 1045] belongs 197 nM; to `COc1ccccc1-c1nc2cc(NC(=O)c3c(C(=O)N4CCC4)cnn3C)ccn2n1` [Roche-Dataset for PDE10A, Compound 120], 0.6 nM.
`COc1ccc2c(c1)c(=O)n(C)c1c(C)nc(-c3ccccc3Cl)n21` [Roche-Dataset for PDE10A, Compound 965]: 7.7 nM corresponded to half-maximal inhibition (IC50).
The figure for `CCN(CC)C(=O)c1cnn(C)c1C(=O)Nc1ccn2nc(N3CCOCC3)nc2c1` [Roche-Dataset for PDE10A, Compound 203] is 22 nM.
The figure for `CSc1nc2cc(NC(=O)c3c(C(=O)N4CCC4)cnn3C)ccc2s1` [Roche-Dataset for PDE10A, Compound 840] is 331 nM.
Consider `Cn1cc(-c2ccccc2)nc1COc1nc2ccccc2c(=O)[nH]1` [Roche-Dataset for PDE10A, Compound 366], for which the IC50 was 90 nM.
The figure for `Cc1c(Br)cc(C(F)(F)F)c2nc(CCc3nc(N4CCCC4)nn3C)nn12` [Roche-Dataset for PDE10A, Compound 135] is 0.43 nM.
With `O=C(Nc1cnccc1Cl)c1nc(C2CC2)ccc1Nc1cncnc1` [Roche-Dataset for PDE10A, Compound 995], the IC50 came out at 21 nM.
With `CC1(NC(=O)c2ncccc2NC(=O)c2nc(C3CC3)cnc2Nc2cncnc2)COC1` [US8703768, 275], the IC50 amounted to 0.38 nM.
Compound `Cn1ncc(C(=O)N2CCC2)c1C(=O)N[C@@H]1CCn2cc(-c3ccccc3Cl)nc2C1` [Roche-Dataset for PDE10A, Compound 408] had an IC50 of 2.22 nM.
`CN(C)c1nc2cc(NC(=O)c3c(C(=O)N4CCC4)cnn3C)ccn2n1` [Roche-Dataset for PDE10A, Compound 520] registered an IC50 of 2.77 nM. This IC50 and that of the compound before are within 1.5-fold of each other.
The compound `CN(C)C(=O)c1cnn(C)c1C(=O)N[C@@H]1CCn2cc(-c3ccccc3OC(F)F)nc2C1` [Roche-Dataset for PDE10A, Compound 317] gave an IC50 of 19 nM.
Consider `CCCn1ccc(NC(=O)c2c(C(=O)N3CCC3)cnn2C)n1` [Roche-Dataset for PDE10A, Compound 1116], for which the IC50 came out at 404 nM.
`CN(C)C(=O)c1nn(C)cc1C(=O)Nc1ccn2cc(-c3ccccc3)nc2n1` [Roche-Dataset for PDE10A, Compound 409] registered an IC50 of 63 nM. Against the preceding compound, the IC50 is about 6.4-fold lower.
To `Cn1ncc(C(=O)N2CCC2)c1C(=O)Nc1ccn(CCF)n1` [Roche-Dataset for PDE10A, Compound 1082] belongs 551 nM; to `CCOC(=O)c1cnn(C)c1C(=O)Nc1cn(-c2ccccn2)cn1` [Roche-Dataset for PDE10A, Compound 960], 2670 nM; to `CCCn1ccc(NC(=O)c2nc(C3CC3)ccc2Nc2cncnc2)n1` [Roche-Dataset for PDE10A, Compound 643], 14 nM.
`CCNC(=O)c1c(NC(=O)c2c(C(=O)N3CCC3)cnn2C)cnn1C` [Roche-Dataset for PDE10A, Compound 1120]: half-maximal inhibition (IC50) required 3130 nM. This IC50 is about 220-fold higher than that of the compound before.
To `CNC(=O)c1cn2cc(-c3ccccc3)nc2cc1NC(=O)c1nc(C2CC2)ccc1Nc1cncnc1` [Roche-Dataset for PDE10A, Compound 184] belongs 0.22 nM.
To `O=C(Nc1ccncc1F)c1ccc2cc(-c3ccccc3)nn2c1` [Roche-Dataset for PDE10A, Compound 471] belongs 933 nM; to `CCn1nc(CCc2nc3c(C)ncc(C)n3n2)nc1N1CCCC1` [Roche-Dataset for PDE10A, Compound 533], 29 nM; to `Cn1nc(-c2ccccn2)cc1NC(=O)c1c(C(=O)N2CCC2)cnn1C` [Roche-Dataset for PDE10A, Compound 535], 7.96 nM.
`CN(C)CCNC(=O)c1c(NC(=O)c2nc(C3CC3)cnc2Nc2cncnc2)cnn1C` [US8703768, 313] displayed an IC50 of 51 nM. This IC50 is about 6.4-fold higher than that of the compound before.
The compound `Cn1nc(-c2ccccn2)cc1NC(=O)c1c(I)cc[nH]c1=O` [Roche-Dataset for PDE10A, Compound 774] came in with an IC50 of 2800 nM.
To `CN(c1cncnc1)c1ccc(C2CC2)nc1C(=O)N[C@@H]1CCN(c2ccc(Br)cn2)C1` [Roche-Dataset for PDE10A, Compound 95] belongs 8340 nM.
For `COc1ccc(Cl)cc1C(=O)Nc1cc(-c2ccccn2)nn1C` [Roche-Dataset for PDE10A, Compound 608], it took 1380 nM to reach half-maximal inhibition (IC50). Against the preceding compound, the IC50 is about 6-fold lower.
To `CCN(C)C(=O)c1cnn(C)c1C(=O)Nc1ccn2cc(-c3cccc(OCCCF)c3)nc2n1` [Roche-Dataset for PDE10A, Compound 1] belongs 6.05 nM.
On to `COc1ccccc1-c1cn2c(n1)C[C@H](NC(=O)c1c(C(=O)N3CC(F)C3)cnn1C)CC2` [Roche-Dataset for PDE10A, Compound 379], for which the IC50 was determined as 4.41 nM. The IC50 values of the last two compounds are within 1.5-fold of each other.
Turning to `CN(c1nc2cc(NC(=O)c3c(C(=O)O)cnn3C)ccn2n1)C1CC1` [Roche-Dataset for PDE10A, Compound 649], the midpoint of inhibition, the IC50, lay at 42 nM.
The compound `Cc1cncc(-c2nc3cc(NC(=O)c4c(C(=O)N5CCC5)cnn4C)ccn3n2)c1` [Roche-Dataset for PDE10A, Compound 219] registered an IC50 of 11 nM. Against the preceding compound, the IC50 is about 3.8-fold lower.
In turn, `Cc1ccc(NC(=O)c2nc(C3CC3)cnc2Nc2cncnc2)c(C(=O)N(C)C)n1` [US8703768, 276] showed an IC50 of 13 nM.
For `CNC(=O)c1cccc(NC(=O)c2nc(C3CC3)cnc2Nc2cncnc2)n1` [Roche-Dataset for PDE10A, Compound 1026], the IC50 was determined as 170 nM.
Turning to `O=C(Nc1ccn(CC(F)(F)F)n1)c1nc(C2CC2)ccc1Nc1cncnc1` [Roche-Dataset for PDE10A, Compound 603], the IC50 worked out at 6.39 nM.
`O=C(Nc1ccn(CCC(F)(F)F)n1)c1nc(C2CC2)ccc1Nc1cncnc1` [Roche-Dataset for PDE10A, Compound 498]: the IC50 came out at 9.67 nM.
Take `O=C(Nc1ccnn1CCO)c1nc(C2CC2)ccc1Nc1cncnc1` [Roche-Dataset for PDE10A, Compound 860]: 49 nM corresponded to half-maximal inhibition (IC50).
The compound `CN1C(=O)c2ccc(NC(=O)c3nc(C4CC4)ccc3Nc3cncnc3)cc2C1=O` [Roche-Dataset for PDE10A, Compound 849] registered an IC50 of 48 nM.
In turn, `Cc1ncc(C)n2nc(CCc3nc(-n4cccn4)nn3C)nc12` [Roche-Dataset for PDE10A, Compound 836] yielded an IC50 of 169 nM.
Take `Cn1ncc(C(=O)N2CCC2)c1C(=O)Nc1ccn2nc(-c3ccccc3OCCCF)nc2c1` [Roche-Dataset for PDE10A, Compound 11]: the IC50 is 0.3 nM.
